Test system: HIV-1 strain NL4-3
Assay: Entry inhibition of laboratory-adapted HIV-1 strain NL4-3
Format: cell-based
Conditions: Human immunodeficiency virus 1, NL43; NL4-3

Q: Which EC50 does the source give for `COc1cnc(-c2csc(C(=O)NCCO)n2)c2[nH]cc(C(=O)C(=O)N3CCC(=C(C#N)c4ccccc4)CC3)c12` [BMS-818251] here?
A: The EC50 was 0.019 ± 0.003 nM.
